We go through three compounds from PMC10824666 (Nature Cancer, 2023).

The structures appear in SMILES notation. Where two headings read alike, the source gives them in different places.

Holding throughout (experiment): biochemical
What all share (set-up): Eurofins DiscoverX kinase panel, competitive binding assay at 1 uM, percent of DMSO control
Settings in all cases: competitive binding, percent of DMSO control

One test has as its target T1, GAK (Homo sapiens, UniProt O14976).
T1 sequence (O14976 1-1311): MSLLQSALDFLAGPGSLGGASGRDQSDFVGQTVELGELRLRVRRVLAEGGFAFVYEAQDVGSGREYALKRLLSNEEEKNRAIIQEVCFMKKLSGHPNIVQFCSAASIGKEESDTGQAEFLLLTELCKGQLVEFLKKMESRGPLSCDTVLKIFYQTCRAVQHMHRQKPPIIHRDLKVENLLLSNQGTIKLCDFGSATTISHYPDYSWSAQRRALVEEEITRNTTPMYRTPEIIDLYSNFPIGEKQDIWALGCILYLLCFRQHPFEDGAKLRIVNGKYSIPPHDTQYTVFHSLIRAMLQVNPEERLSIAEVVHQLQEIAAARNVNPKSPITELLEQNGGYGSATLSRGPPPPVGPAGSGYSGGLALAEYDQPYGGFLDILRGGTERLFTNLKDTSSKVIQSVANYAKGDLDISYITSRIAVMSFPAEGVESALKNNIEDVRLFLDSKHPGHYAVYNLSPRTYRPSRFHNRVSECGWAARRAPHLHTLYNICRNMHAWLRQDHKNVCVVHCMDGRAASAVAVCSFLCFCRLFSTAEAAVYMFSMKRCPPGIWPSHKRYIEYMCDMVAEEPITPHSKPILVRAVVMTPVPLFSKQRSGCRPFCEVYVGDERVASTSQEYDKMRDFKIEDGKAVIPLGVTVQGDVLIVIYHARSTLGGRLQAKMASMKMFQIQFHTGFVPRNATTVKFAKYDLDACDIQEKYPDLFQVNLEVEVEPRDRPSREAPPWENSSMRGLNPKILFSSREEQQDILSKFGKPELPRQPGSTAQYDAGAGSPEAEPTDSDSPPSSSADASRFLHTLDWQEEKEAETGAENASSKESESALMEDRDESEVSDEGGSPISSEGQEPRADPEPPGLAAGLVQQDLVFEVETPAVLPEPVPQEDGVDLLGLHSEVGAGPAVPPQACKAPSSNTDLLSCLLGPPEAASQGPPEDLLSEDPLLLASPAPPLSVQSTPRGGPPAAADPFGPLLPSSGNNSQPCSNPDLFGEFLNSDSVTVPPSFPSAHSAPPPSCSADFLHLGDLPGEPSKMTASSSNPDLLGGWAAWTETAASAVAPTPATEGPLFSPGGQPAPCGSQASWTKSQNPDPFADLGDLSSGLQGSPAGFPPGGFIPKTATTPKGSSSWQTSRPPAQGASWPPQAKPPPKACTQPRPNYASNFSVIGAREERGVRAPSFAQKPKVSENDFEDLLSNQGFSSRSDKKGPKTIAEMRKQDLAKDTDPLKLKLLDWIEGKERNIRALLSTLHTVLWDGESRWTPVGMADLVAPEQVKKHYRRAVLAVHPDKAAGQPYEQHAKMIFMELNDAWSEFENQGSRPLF
A digest of the protocol: (§1)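 Single-point profiling at 1 µM compound in a competition-binding format against 96 kinases, read out as POC relative to control; n = 1.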

A further test deals with MAP4K4 (Homo sapiens, UniProt O95819). A digest of the protocol: as §1
Chain of MAP4K4 (O95819 whole entry): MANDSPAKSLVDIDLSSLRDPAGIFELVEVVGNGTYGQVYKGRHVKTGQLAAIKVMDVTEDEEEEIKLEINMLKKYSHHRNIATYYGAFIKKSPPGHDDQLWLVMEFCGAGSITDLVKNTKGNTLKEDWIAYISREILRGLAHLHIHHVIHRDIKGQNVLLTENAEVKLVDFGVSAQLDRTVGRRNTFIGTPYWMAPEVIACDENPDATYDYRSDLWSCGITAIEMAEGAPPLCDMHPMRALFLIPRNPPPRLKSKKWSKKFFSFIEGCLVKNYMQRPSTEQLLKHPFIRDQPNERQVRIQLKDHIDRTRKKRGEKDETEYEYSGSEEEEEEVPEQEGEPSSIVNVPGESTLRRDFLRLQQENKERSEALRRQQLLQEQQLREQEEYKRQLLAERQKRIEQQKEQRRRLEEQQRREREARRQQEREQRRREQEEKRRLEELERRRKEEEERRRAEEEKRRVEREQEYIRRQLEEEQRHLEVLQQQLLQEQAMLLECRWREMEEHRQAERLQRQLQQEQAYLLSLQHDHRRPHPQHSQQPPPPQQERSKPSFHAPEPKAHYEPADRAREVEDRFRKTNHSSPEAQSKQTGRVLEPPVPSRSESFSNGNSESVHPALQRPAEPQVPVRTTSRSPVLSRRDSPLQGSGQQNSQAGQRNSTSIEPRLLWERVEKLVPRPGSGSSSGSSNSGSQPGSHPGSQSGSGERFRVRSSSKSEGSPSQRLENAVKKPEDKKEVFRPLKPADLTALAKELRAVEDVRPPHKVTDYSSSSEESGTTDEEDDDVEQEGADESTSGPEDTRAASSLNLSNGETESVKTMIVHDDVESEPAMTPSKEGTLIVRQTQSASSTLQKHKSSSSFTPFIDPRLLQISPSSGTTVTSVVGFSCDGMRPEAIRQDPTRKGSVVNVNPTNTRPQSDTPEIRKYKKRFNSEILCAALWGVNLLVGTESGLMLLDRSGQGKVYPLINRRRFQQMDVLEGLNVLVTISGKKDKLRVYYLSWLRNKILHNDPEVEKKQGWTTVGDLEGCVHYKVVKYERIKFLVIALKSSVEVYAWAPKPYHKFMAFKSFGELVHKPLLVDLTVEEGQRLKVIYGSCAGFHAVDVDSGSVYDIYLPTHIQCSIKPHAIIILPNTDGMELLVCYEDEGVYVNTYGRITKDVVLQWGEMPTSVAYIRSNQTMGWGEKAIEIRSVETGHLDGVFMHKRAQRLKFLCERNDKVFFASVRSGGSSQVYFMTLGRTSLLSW
A further test concerns the target SRC (Homo sapiens, UniProt P12931). A digest of the protocol: as §1
The mark [1] stands for this setting: read-out: Kinome Profiling performed by Eurofins DiscoverX / AM-0277, 1.0 µM / POC.
Setting [2] is: read-out: Kinome Profiling performed by Eurofins DiscoverX / AM-1882, 1.0 µM / POC.
Setting [3] is: read-out: Kinome Profiling performed by Eurofins DiscoverX / AM-5308, 1.0 µM / POC.

Chain of SRC (P12931 whole entry): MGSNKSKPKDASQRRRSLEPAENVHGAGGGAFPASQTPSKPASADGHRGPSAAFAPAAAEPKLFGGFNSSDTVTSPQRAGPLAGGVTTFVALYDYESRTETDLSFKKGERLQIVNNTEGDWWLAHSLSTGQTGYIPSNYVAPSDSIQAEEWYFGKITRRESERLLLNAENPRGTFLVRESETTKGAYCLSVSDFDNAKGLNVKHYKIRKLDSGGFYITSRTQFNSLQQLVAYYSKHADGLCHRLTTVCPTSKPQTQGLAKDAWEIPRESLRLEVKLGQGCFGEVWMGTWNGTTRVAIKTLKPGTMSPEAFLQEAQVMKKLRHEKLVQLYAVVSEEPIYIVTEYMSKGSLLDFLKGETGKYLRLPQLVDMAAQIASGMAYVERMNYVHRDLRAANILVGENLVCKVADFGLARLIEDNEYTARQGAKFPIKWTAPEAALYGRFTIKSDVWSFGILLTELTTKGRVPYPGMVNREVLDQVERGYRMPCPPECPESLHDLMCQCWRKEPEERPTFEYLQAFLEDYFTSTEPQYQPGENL

For `CC(C)(CO)Nc1ccc(C(=O)Nc2cccc(S(=O)(=O)C3CCCC3)c2)c(N2CCC3(CC2)CC3)n1` [AM-0277], the results for the remaining activity at 1 µM on GAK (setting [1]), at MAP4K4 (setting [1]) and on SRC (setting [1]) were 100%, 100% and 89%, respectively.
Take `CC(C)(C)NS(=O)(=O)c1cccc(NC(=O)c2ccc(S(=O)(=O)NC(C)(C)C)cc2N2CCC3(CC2)CC3)c1` [AM-1882]: the remaining activity at 1 µM on GAK (setting [2]) was 99.5%; at MAP4K4 (setting [2]), 95%; on SRC (setting [2]) it was 98%.
Consider `C[C@@H]1CN(c2cccc(NC(=O)c3ccc(NS(=O)(=O)CCO)cc3N3CCC4(CC3)CC4)n2)CCO1` [AM-5308], for which the remaining activity at 1 µM worked out at 86% at GAK (setting [3]), 75% at MAP4K4 (setting [3]) and 96.5% at SRC (setting [3]).
